# Starred links: 1 amine or outer side, 2 acyl side, 3 side chain; linkers in the order of their positions; H or OH if unused. Positions of bridges follow the written chain, without caps; N, C: chain ends. Non-standard residues stand in square brackets, D forms with d. Residues, ends and D or L forms follow the SMILES beside them. *: point of attachment. hPhe(3-Cl-4-CF3) = N[C@@H](CCc1ccc(C(F)(F)F)c(Cl)c1)C(=O)O; hPhe(3-F,4-CF3) = N[C@@H](CCc1ccc(C(F)(F)F)c(F)c1)C(=O)O; NMePhe(4-CF3) = CN[C@@H](Cc1ccc(C(F)(F)F)cc1)C(=O)O; NMePhe(4-Me) = CN[C@@H](Cc1ccc(C)cc1)C(=O)O; NMedβ3hAla = C[C@H](CC(=O)[*:2])N(C)[*:1]; NMeAla(cPent) = CN[C@@H](CC1CCCC1)C(=O)O; NMeGly(cPent) = CN[C@H](C(=O)O)C1CCCC1; NMeCha = CN[C@@H](CC1CCCCC1)C(=O)O; cisHyp = O=C(O)[C@@H]1C[C@H](O)CN1; Hyp = O=C(O)[C@@H]1C[C@@H](O)CN1; NMeChg = CN[C@H](C(=O)O)C1CCCCC1; NMeI = CC[C@H](C)[C@H](NC)C(=O)O; X61 = O=C(CN(CC1COC1)[*:1])[*:2]; Piperidide(4-Me) = CC1CCN(*)CC1; NMeD = CN[C@@H](CC(=O)O)C(=O)O; Benzyl(4-Cl) = Clc1ccc(C*)cc1; NMeL = CN[C@@H](CC(C)C)C(=O)O; NMeNva = CCC[C@H](NC)C(=O)O; NMeV = CN[C@H](C(=O)O)C(C)C; d(β3hA) = C[C@@H](N)CC(=O)O; Azetidin(1-yl) = C1CN(*)C1; NMeS = CN[C@@H](CO)C(=O)O; Morpholide = C1CN(*)CCO1; NMeA = CN[C@@H](C)C(=O)O; Piperidide = C1CCN(*)CC1; Pyrrolidide = C1CCN(*)C1; X45 = FC(F)Oc1ccc(C*)cc1; Ac5c = NC1(C(=O)O)CCCC1; Aze = O=C(O)[C@@H]1CCN1; Ac4c = NC1(C(=O)O)CCC1; NEtG = CCNCC(=O)O; Sar = CNCC(=O)O; Propyl = CCC*
# Test system: Human pancreatic cancer cell line AsPC-1
# Experiment: Measurement of AsPC-1 cell growth inhibition (AsPC-1 CGI)
# Assay type: cell-based
# Conditions: 96 h
# Description: Measurement of AsPC-1 Cell Growth Inhibition (AsPC-1 CGI)
# Test compounds were serially diluted with dimethyl sulfoxide, and 200 nL was then dispensed to a U-bottom 96-well plate using Labcyte Echo. Human pancreatic cancer cell line AsPC-1 was suspended in RPMI-1640 medium supplemented with 15% fetal bovine serum to prepare a cell suspension at 1000 cells/100 μL. The cell suspension was dispensed to a plate containing a test compound at 100 μL per well and incubated at 37° C. in a 5% carbon dioxide gas incubator. 96 hours later, 80 μL of CellTiter-Glo (Promega) was added to each well and […] was measured.
row,Compound,IC50 [nM]
1,CC[C@H](C)[C@@H]1NC(=O)[C@H](CC(C)C)N(C)C(=O)C[C@@H](C(=O)N2CCCCC2)N(C)C(=O)[C@H](C(C)C)N(C)C(=O)C2(CCCC2)NC(=O)[C@@H]2CCCN2C(=O)[C@H](CCc2ccc(C(F)(F)F)c(Cl)c2)NC(=O)CN(C)C(=O)[C@H](C(C)C)N(C)C(=O)[C@@H]2CCN2C(=O)[C@H](C)N(C)C1=O [Compound 1737] ([NMeL]I[NMeA][Aze][NMeV][Sar][hPhe(3-Cl-4-CF3)]P[Ac5c][NMeV][NMeD]-Piperidide; lactam N-11),100 to 500
2,CC[C@H](C)[C@@H]1NC(=O)[C@H](CC(C)C)N(C)C(=O)C[C@@H](C)NC(=O)[C@H](C(C)C)N(C)C(=O)C2(CCCC2)NC(=O)[C@@H]2CCCN2C(=O)[C@H](CCc2ccc(C(F)(F)F)c(Cl)c2)NC(=O)CN(C)C(=O)[C@H](Cc2ccc(C)cc2)N(C)C(=O)[C@@H]2CCN2C(=O)[C@H](C)N(C)C1=O [Compound 1801] (cyclo([Ac5c][NMeV][d(β3hA)][NMeL]I[NMeA][Aze][NMePhe(4-Me)][Sar][hPhe(3-Cl-4-CF3)]P)),50 to 100
3,"CC[C@H](C)[C@@H]1NC(=O)[C@H](CC(C)C)N(C)C(=O)C[C@@H](C(=O)N2CCOCC2)N(C)C(=O)[C@H]([C@@H](C)CC)N(C)C(=O)C2(CCCC2)NC(=O)[C@@H]2CCCN2C(=O)[C@H](CCc2ccc(C(F)(F)F)c(F)c2)NC(=O)CN(C)C(=O)[C@H](CC2CCCCC2)N(C)C(=O)[C@@H]2CCN2C(=O)[C@H](C)N(C)C1=O [Compound 790] ([NMeL]I[NMeA][Aze][NMeCha][Sar][hPhe(3-F,4-CF3)]P[Ac5c][NMeI][NMeD]-Morpholide; lactam N-11)",20 to 50
4,CC[C@H](C)[C@@H]1NC(=O)[C@H](CC(C)C)N(C)C(=O)C[C@@H](C(=O)N(C)C)N(C)C(=O)[C@H](C2CCCCC2)N(C)C(=O)C2(CCCC2)NC(=O)[C@@H]2CCCN2C(=O)[C@H](CCc2ccc(C(F)(F)F)c(Cl)c2)NC(=O)CN(C)C(=O)[C@H](CC2CCCCC2)N(C)C(=O)[C@@H]2CCN2C(=O)[C@H](C)N(C)C1=O [Compound 1675] ([NMeL]I[NMeA][Aze][NMeCha][Sar][hPhe(3-Cl-4-CF3)]P[Ac5c][NMeChg][NMeD]-NMe2; lactam N-11),20 to 50
5,CC[C@H](C)[C@@H]1NC(=O)[C@H](CC(C)C)N(C)C(=O)C[C@@H](C(=O)N2CCCCC2)N(C)C(=O)[C@H](C2CCCCC2)N(C)C(=O)C2(CCCC2)NC(=O)[C@@H]2CCCN2C(=O)[C@H](CCc2ccc(C(F)(F)F)c(Cl)c2)NC(=O)CN(C)C(=O)[C@H](CC2CCCCC2)N(C)C(=O)[C@@H]2CCN2C(=O)[C@H](C)N(C)C1=O [Compound 249] ([NMeL]I[NMeA][Aze][NMeCha][Sar][hPhe(3-Cl-4-CF3)]P[Ac5c][NMeChg][NMeD]-Piperidide; lactam N-11),100 to 500
6,"CC[C@H](C)[C@@H]1NC(=O)[C@H](CC(C)C)N(C)C(=O)C[C@@H](C(=O)N2CCCCC2)N(C)C(=O)[C@H](CC(C)C)N(C)C(=O)C2(CCCC2)NC(=O)[C@@H]2C[C@H](OCc3ccc(Cl)cc3)CN2C(=O)[C@H](CCc2ccc(C(F)(F)F)c(F)c2)NC(=O)CN(C)C(=O)[C@H](CC2CCCCC2)N(C)C(=O)CN(C)C(=O)CN(C)C1=O [Compound 2129] ([NMeL]I[Sar][Sar][NMeCha][Sar][hPhe(3-F,4-CF3)][cisHyp](Benzyl(4-Cl))[Ac5c][NMeL][NMeD]-Piperidide; lactam N-11)",> 500
7,CC[C@H](C)[C@@H]1NC(=O)[C@H](C)N(C)C(=O)C[C@@H](C)NC(=O)[C@H](C2CCCC2)N(C)C(=O)C2(CCC2)NC(=O)[C@@H]2CCCN2C(=O)[C@H](CCc2ccc(C(F)(F)F)c(Cl)c2)NC(=O)CN(C)C(=O)[C@H](Cc2ccc(C(F)(F)F)cc2)N(C)C(=O)CN(C)C(=O)CN(C)C1=O [Compound 1486] (cyclo([Ac4c][NMeGly(cPent)][d(β3hA)][NMeA]I[Sar][Sar][NMePhe(4-CF3)][Sar][hPhe(3-Cl-4-CF3)]P)),100 to 500
8,CC[C@H](C)[C@@H]1NC(=O)[C@H](CC2CCCC2)N(C)C(=O)C[C@@H](C(=O)N2CCCCC2)N(C)C(=O)[C@H](C(C)C)N(C)C(=O)C2(CCCC2)NC(=O)[C@@H]2CCCN2C(=O)[C@H](CCc2ccc(C(F)(F)F)c(Cl)c2)NC(=O)CN(C)C(=O)[C@H](CC2CCCCC2)N(C)C(=O)[C@@H]2CCN2C(=O)[C@H](C)N(C)C1=O [Compound 37] ([NMeAla(cPent)]I[NMeA][Aze][NMeCha][Sar][hPhe(3-Cl-4-CF3)]P[Ac5c][NMeV][NMeD]-Piperidide; lactam N-11),100 to 500
9,CC[C@H](C)[C@@H]1NC(=O)[C@H](CC(C)C)N(C)C(=O)C[C@@H](C(=O)N2CCCC2)N(C)C(=O)[C@H](C(C)C)N(C)C(=O)C2(CCCC2)NC(=O)[C@@H]2CCCN2C(=O)[C@H](CCc2ccc(C(F)(F)F)c(Cl)c2)NC(=O)CN(C)C(=O)[C@H](Cc2ccc(C)cc2)N(C)C(=O)[C@@H]2CCN2C(=O)[C@H](C)N(C)C1=O [Compound 1866] ([NMeL]I[NMeA][Aze][NMePhe(4-Me)][Sar][hPhe(3-Cl-4-CF3)]P[Ac5c][NMeV][NMeD]-Pyrrolidide; lactam N-11),100 to 500
10,"CCCOC[C@H]1C(=O)N(C)CC(=O)N[C@@H](CCc2ccc(C(F)(F)F)c(F)c2)C(=O)N2CCC[C@H]2C(=O)NC2(CCCC2)C(=O)N(C)[C@@H]([C@@H](C)CC)C(=O)N(C)[C@H](C(=O)N2CCCCC2)CC(=O)N(C)[C@@H](CC(C)C)C(=O)N[C@@H]([C@@H](C)CC)C(=O)N(C)[C@@H](C)C(=O)N2CC[C@H]2C(=O)N1C [Compound 236] ([NMeL]I[NMeA][Aze][NMeS](Propyl)[Sar][hPhe(3-F,4-CF3)]P[Ac5c][NMeI][NMeD]-Piperidide; lactam N-11)",20 to 50
11,"CC[C@H](C)[C@@H]1NC(=O)[C@H](CC(C)C)N(C)C(=O)C[C@@H](C(=O)N2CCCCC2)N(C)C(=O)[C@H](CC(C)C)N(C)C(=O)C2(CCCC2)NC(=O)[C@@H]2C[C@@H](OCc3ccc(OC(F)F)cc3)CN2C(=O)[C@H](CCc2ccc(C(F)(F)F)c(F)c2)NC(=O)CN(C)C(=O)[C@H](CC2CCCCC2)N(C)C(=O)CN(C)C(=O)CN(C)C1=O [Compound 2128] ([NMeL]I[Sar][Sar][NMeCha][Sar][hPhe(3-F,4-CF3)][Hyp](X45)[Ac5c][NMeL][NMeD]-Piperidide; lactam N-11)",> 500
12,CC[C@H](C)[C@@H]1NC(=O)[C@H](CC(C)C)N(C)C(=O)C[C@@H](C(=O)N2CCC2)N(C)C(=O)[C@H](C2CCCC2)N(C)C(=O)C2(CCCC2)NC(=O)[C@@H]2CCCN2C(=O)[C@H](CCc2ccc(C(F)(F)F)c(Cl)c2)NC(=O)CN(CC)C(=O)[C@H](CC2CCCCC2)N(C)C(=O)[C@@H]2CCN2C(=O)[C@H](C)N(C)C1=O [Compound 726] ([NMeL]I[NMeA][Aze][NMeCha][NEtG][hPhe(3-Cl-4-CF3)]P[Ac5c][NMeGly(cPent)][NMeD]-{Azetidin(1-yl)}; lactam N-11),20 to 50
13,CC[C@H](C)[C@@H]1NC(=O)[C@H](CC(C)C)N(C)C(=O)C[C@@H](C(=O)N2CCCCC2)N(C)C(=O)[C@H](C2CCCCC2)N(C)C(=O)C2(CCCC2)NC(=O)CN(CC2COC2)C(=O)[C@H](CCc2ccc(C(F)(F)F)c(Cl)c2)NC(=O)CN(C)C(=O)[C@H](CC2CCCCC2)N(C)C(=O)CN(C)C(=O)CN(C)C1=O [Compound 2031] ([NMeL]I[Sar][Sar][NMeCha][Sar][hPhe(3-Cl-4-CF3)][X61][Ac5c][NMeChg][NMeD]-Piperidide; lactam N-11),100 to 500
14,"CC[C@H](C)[C@@H]1NC(=O)[C@H](CC(C)C)N(C)C(=O)C[C@@H](C)NC(=O)[C@H](CC(C)C)N(C)C(=O)C2(CCCC2)NC(=O)[C@@H]2C[C@@H](O)CN2C(=O)[C@H](CCc2ccc(C(F)(F)F)c(F)c2)NC(=O)CN(C)C(=O)[C@H](CC2CCCCC2)N(C)C(=O)CN(C)C(=O)CN(C)C1=O [Compound 1483, (3S,9S,18S,21S,25R,28S,34S,36R)-9-(cyclohexylmethyl)-3-[2-[3-fluoro-4-(trifluoromethyl)phenyl]ethyl]-36-hydroxy-21,28-diisobutyl-7,10,13,16,22,25,29-heptamethyl-18-[(1S)-1-methylpropyl]spiro[1,4,7,10,13,16,19,22,26,29,32-undecazabicyclo[32.3.0]heptatriacontane-31,1′-cyclopentane]-2,5,8,11,14,17,20,23,27,30,33-undecone] (cyclo([Ac5c][NMeL][d(β3hA)][NMeL]I[Sar][Sar][NMeCha][Sar][hPhe(3-F,4-CF3)][Hyp]))",> 500
15,CCC[C@H]1C(=O)N[C@@H]([C@@H](C)CC)C(=O)N(C)[C@@H](C)C(=O)N2CC[C@H]2C(=O)N(C)[C@@H](CC2CCCCC2)C(=O)N(C)CC(=O)N[C@@H](CCc2ccc(C(F)(F)F)c(Cl)c2)C(=O)N2CCC[C@H]2C(=O)NC2(CCCC2)C(=O)N(C)[C@@H](C(C)C)C(=O)N(C)[C@H](C(=O)N2CCCCC2)CC(=O)N1C [Compound 1639] ([NMeNva]I[NMeA][Aze][NMeCha][Sar][hPhe(3-Cl-4-CF3)]P[Ac5c][NMeV][NMeD]-Piperidide; lactam N-11),100 to 500
16,CC[C@H](C)[C@@H]1NC(=O)[C@H](CC(C)C)N(C)C(=O)C[C@@H](C(=O)N2CCC(C)CC2)N(C)C(=O)[C@H](C(C)C)N(C)C(=O)C2(CCCC2)NC(=O)[C@@H]2CCCN2C(=O)[C@H](CCc2ccc(C(F)(F)F)c(Cl)c2)NC(=O)CN(C)C(=O)[C@H](CC2CCCCC2)N(C)C(=O)[C@@H]2CCN2C(=O)[C@H](C)N(C)C1=O [Compound 1291] ([NMeL]I[NMeA][Aze][NMeCha][Sar][hPhe(3-Cl-4-CF3)]P[Ac5c][NMeV][NMeD]-{Piperidide(4-Me)}; lactam N-11),100 to 500
17,CC[C@H](C)[C@@H]1NC(=O)[C@H](CC(C)C)N(C)C(=O)C[C@@H](C)N(C)C(=O)[C@H](C(C)C)N(C)C(=O)C2(CCCC2)NC(=O)[C@@H]2CCCN2C(=O)[C@H](CCc2ccc(C(F)(F)F)c(Cl)c2)NC(=O)CN(C)C(=O)[C@H](CC2CCCCC2)N(C)C(=O)[C@@H]2CCN2C(=O)[C@H](C)N(C)C1=O [Compound 1800] (cyclo([Ac5c][NMeV][NMedβ3hAla][NMeL]I[NMeA][Aze][NMeCha][Sar][hPhe(3-Cl-4-CF3)]P)),50 to 100
